{"source": "patent US5658944A", "about": "“Anti-atherosclerotic aryl compounds” (The University of South Carolina, priority 1990, dated 1997)", "key": {"[1]": {"system": "ACAT", "assay": "In vitro assay for the inhibition of ACAT activity", "format": "biochemical, rat", "details": "hepatic microsomes of cholesterol/cholic acid fed male CD rats, [14C]oleoyl-CoA incorporation", "procedure": "(i) In vitro assay for the inhibition of ACAT activity\nACAT activity was determined as described By Ross et al by the incorporation of [^14 C]oleoyl-CoA into cholesterol [^14 C]oleate using hepatic microsomes as the source of both ACAT and cholesterol. Microsomes were prepared from the livers of male CD rats fed a 0.4% cholesterol/0.2% cholic acid diet 3.5 days before sacrifice. Various concentrations of a test compound were preincubated with a 0.5 mg/ml microsomal suspension and after 15 minutes a 50 μg aliquot was removed and incubated with 25 μM of [^14 C]-enriched oleoyl-CoA for 4 minutes. The reaction was terminated by the addition of 1 ml of ethanol and 4 ml of hexane. After shaking, the hexane layer was removed and evaporated to dryness. The hexane extract was then reconstituted in 150 μl of HPLC solvent and injected on to a B&J OD5 Reverse Phase C18 column using an isocratic mobile phase of acetonitrile: isopropanol:heptane (50:40:10) in 0.5% acetic acid at a flow rate of 1.0 ml/min. The product of the reaction, [^14 C]oleoyl cholesterol, was measured using a Flow One radiometric detector. The ACAT IC50 value for each compound was determined from a plot of % inhibition from control vs inhibitor concentration."}, "[2]": {"system": "cholesterol-cholic acid fed rats", "assay": "Determination of hypolipdemic activity in cholesterol-cholic acid fed rats", "format": "in vivo, rat", "details": "serum on fourth day", "excerpt": "(ii) Determination of hypolipdemic activity in cholesterol-cholic acid fed rats\nMale Sprague-Dawley rats (CD, Charles River) each weighing 200-300 g were used. Hypercholesterolemia was induced in the rats by administration of a diet enriched to 0.4% cholesterol, 0.2% cholic acid. Prior to the adminstration of the diet, blood samples were collected under halothane anesthesia by cardiac puncture to determine baseline lipid levels. The blood was allowed to clot and serum was obtained for the analysis of total cholesterol, dextran-precipitable lipoproteins cholesterol (VLDL+LDL) and total triglycerides. The rats were divided into groups so that each group had similar average baseline serum lipid levels. Five days after the initial blood sampling, administration of each test compound and the cholesterol-cholic acid-enriched diet was begun. Compounds to be tested by gavage were administered b.i.d. in either 0.5% methyl cellulose or 5% sodium bicarbonate a 9:00 a.m. and 3:00 p.m. for three days and at 9:00 a.m. on the fourth day. Compounds administered as part of the diet were dissolved in ethanol and sprayed on to the diet. The ethonol was allowed to evaporate and the diet given to the rats for three days. On the fourth day, blood samples were collected and the final serum lipid levels determined. All blood samplings were taken after a four-hour fast."}}, "data": [{"molecule": "CCCCCCCN(CCc1ccc(OC(C)(C)C(=O)O)cc1)C(=O)Nc1ccc(F)cc1F", "note": "[Synthetic Example 3, 2-(4-{2-[3-(2,4-difluorophenyl)-1-heptylureido]ethyl}phenoxy)-2-methypropionic acid]", "values": [{"measurement": "IC50", "setting": "[1]", "result": 7.6, "unit": "µM"}, {"measurement": "reduced LDL-cholestrol by", "setting": "[2]; dose of 0.5 mg/kg", "result": 90, "unit": "%"}, {"measurement": "reduced LDL-cholestrol by", "setting": "[2]; dose of 2 mg/kg", "result": 74, "unit": "%"}]}, {"molecule": "CCCCCCCN(CCc1ccc(OC(C)(C)C(=O)O)cc1)C(=O)Nc1ccc(OC)cc1OC", "note": "[Synthetic Example 2, 2-(4-{2-[3-(2,4-dimethoxyphenyl)-1-heptylureido]ethyl}phenoxy)-2-methylpropionic acid]", "values": [{"measurement": "IC50", "setting": "[1]", "result": 3.4, "unit": "µM"}, {"measurement": "reduced LDL-cholestrol by", "setting": "[2]; dose of 5 mg/kg", "result": "41-71%"}, {"measurement": "reduced LDL-cholestrol by", "setting": "[2]; dose of 25 mg/kg", "result": 61, "unit": "%"}]}, {"molecule": "CCCCCCCN(Cc1ccc(OC(C)(C)C(=O)O)cc1)C(=O)Nc1ccc(OC)cc1OC", "note": "[Synthetic Example 1, 2-(4-{[3-(2,4-dimethoxyphenyl)-1-heptylureido]methyl}phenoxy)-2-methylpropionic acid]", "values": [{"measurement": "IC50", "setting": "[1]", "result": 4.5, "unit": "µM"}, {"measurement": "reduced LDL-cholestrol by", "setting": "[2]; dose of 25 mg/kg", "result": 55, "unit": "%"}, {"measurement": "reduced LDL-cholestrol by", "setting": "[2]; dose of 50 mg/kg", "result": 67, "unit": "%"}]}]}
